From patent US20210330818A1, “METHOD FOR ANALYZING NON-OBSERVED EFFECT CONCENTRATION (NOEC) OF CHEMICAL ON ORGANISM” (priority 2020, published 2021)

Columns and labels:
quail = assay: Chronic toxicity (growth and reproduction) test for quails fed poisonous feedstuff; assay type: in vivo; conditions: for Egg production: average daily, day 40 to 48; for Stillbirth rate: eggs of day 45 to 50; for NOEC (smallest NOEC among the endpoint effects): quail, overall over body weight, egg production, stillbirth rate
From the text: In the test, the quail was adopted as a test organism, acetamiprid and MCPA were adopted as test chemicals, and the end effects were body weight, average daily egg production and stillbirth rate.
Healthy and lively quails, which were 30-day old and weighed 90 g to 110 g, were selected for the test. The male and female were raised separately, with 10 quails for each cage. The quails were fed with a poisonous feedstuff twice a day at the same feeding amount for a long time, with an average feeding amount of 20 g per day for each quail. Since the feeding started, the body weight was recorded for quails in each treatment; the number of eggs produced on day 40 to 48 was counted; the eggs produced on day 45 to 50 were collected and hatched in a poultry-specific hatcher separately for each treatment; and the stillbirth rate was calculated. In this example, the endpoint effect data were body weight, egg production and stillbirth rate.

Trichogramma = assay: Chronic toxicity test on Trichogramma, egg card-dipping method; conditions: for NOEC (smallest NOEC among the endpoint effects): Trichogramma, overall over egg yield, emergence rate, adult survival time
From the text: Trichogramma is one of the natural enemies that are most widely used and have dominant influence. As an important means to control insect pests, chemical pesticides can also cause toxic and side effects to natural enemies of the insect pests that will be killed by the chemical pesticides. […] In the test, Trichogramma was adopted as a test organism, dimethoate and imidacloprid were adopted as test chemicals, and endpoint effects were egg yield, emergence rate and adult survival time. 6 treatment concentrations (including 1 blank control and 5 test chemical concentrations, see Table 1 for details) were set for each test chemical group.
The egg card-dipping method was adopted. A 1.0 cm×2.0 cm card of rice moth eggs (approximately 100 eggs) was placed in each finger tube, then about 20 Trichogramma adults at 4 h to 6 h after emergence were introduced, and the Trichogramma adults were removed after they had parasitized the rice moth eggs for 24 h. 144 h later, the egg cards were dipped in test solutions with different concentrations separately for 5 s, then taken out and air dried, and put into finger tubes. The tubes were sealed with a black cloth, and then put in an incubator until the emergence of Trichogramma adults was completed. A 0.1% Triton X-100 aqueous solution was adopted as a blank control. 9 replicates were set for each treatment, and divided into three groups for the observation of 3 endpoint effects respectively, namely, with 3 replicates for each endpoint effect. A first group was used to investigate the egg yield; a second group was used to investigate the number of emerged adults, and the emergence rate was calculated (emergence rate=the number of emerged adults/the number of […]×100%); and a third group was used to investigate the adult survival time. If the number of emerged adults is less than 30 or the emerged adults have a low vitality and thus cannot be transferred to a new finger tube autonomously, the parasitism rate and survival time will not be investigated.

[1] = mass concentration 0.5 mg/Lfeedstuff
[2] = mass concentration 2 mg/Lfeedstuff
[3] = mass concentration 7 mg/Lfeedstuff
[4] = mass concentration 30 mg/Lfeedstuff
[5] = mass concentration 130 mg/Lfeedstuff
[6] = mass concentration 1.25 mg/Lfeedstuff
[7] = mass concentration 6.25 mg/Lfeedstuff
[8] = mass concentration 25 mg/Lfeedstuff
[9] = mass concentration 125 mg/Lfeedstuff
[10] = mass concentration 500 mg/Lfeedstuff

SMILES: C/C(=N\C#N)N(C)Cc1ccc(Cl)nc1 [Acetamiprid, acetamiprid]
- Validation: body weight compared with blank control (quail; 125 mg/L): no significant difference
- Validation: egg production compared with blank control (quail; 125 mg/L): no significant difference
- Validation: stillbirth rate compared with blank control (quail; 125 mg/L): no significant difference
- NOEC for chronic toxicity in quails based on the body weight (quail): 130 mg/kgfeedstuff
- NOEC for chronic toxicity in quails based on the egg production (quail): 130 mg/kgfeedstuff
- NOEC for chronic toxicity in quails based on the stillbirth rate (quail): 130 mg/kgfeedstuff
- Body weight (quail; [1]): 150.9 a g
- Egg production (quail; [1]): 0.87 a eggs
- Stillbirth rate (quail; [1]): 23.4 a %
- Body weight (quail; [2]): 156.7 a g
- Egg production (quail; [2]): 0.86 a eggs
- Stillbirth rate (quail; [2]): 16.7 a %
- Body weight (quail; [3]): 153.6 a g
- Egg production (quail; [3]): 0.87 a eggs
- Stillbirth rate (quail; [3]): 25.7 a %
- Body weight (quail; [4]): 151.9 a g
- Egg production (quail; [4]): 0.89 a eggs
- Stillbirth rate (quail; [4]): 26.4 a %
- Body weight (quail; [5]): 145.4 a g
- Egg production (quail; [5]): 0.86 a eggs
- Stillbirth rate (quail; [5]): 21.9 a %
- NOEC (smallest NOEC among the endpoint effects) (quail): 130 mg/kgfeedstuff

SMILES: CNC(=O)CSP(=S)(OC)OC [Dimethoate, dimethoate]
- Validation: egg yield compared with blank control (Trichogramma; 90 mg/L): no significant difference
- NOEC (smallest NOEC among the endpoint effects) (Trichogramma): 100 mg/L
- NOEC for chronic toxicity in Trichogramma based on the adult survival time (Trichogramma): 400 mg/L
- NOEC for chronic toxicity in Trichogramma based on the egg yield (Trichogramma): 100 mg/L
- NOEC for chronic toxicity in Trichogramma based on the emergence rate (Trichogramma): 200 mg/L
- Adult survival time (Trichogramma; mass concentration 25 mg/L): 3.15 a d
- Egg yield (Trichogramma; mass concentration 25 mg/L): 36.1 a eggs
- Adult survival time (Trichogramma; mass concentration 50 mg/L): 3.27 a d
- Egg yield (Trichogramma; mass concentration 50 mg/L): 34.2 a eggs
- Adult survival time (Trichogramma; mass concentration 100 mg/L): 3.30 a d
- Egg yield (Trichogramma; mass concentration 100 mg/L): 31.6 a eggs
- Adult survival time (Trichogramma; mass concentration 200 mg/L): 2.67 a d
- Egg yield (Trichogramma; mass concentration 200 mg/L): 27.2 b eggs
- Adult survival time (Trichogramma; mass concentration 400 mg/L): 2.32 a d
- Egg yield (Trichogramma; mass concentration 400 mg/L): 20.7 b eggs

SMILES: O=[N+]([O-])NC1=NCCN1Cc1ccc(Cl)nc1 [Imidacloprid, imidacloprid]
- Validation: emergence rate compared with blank control (Trichogramma; 35 mg/L): no significant difference
- NOEC (smallest NOEC among the endpoint effects) (Trichogramma): 40 mg/L
- NOEC for chronic toxicity in Trichogramma based on the adult survival time (Trichogramma): 160 mg/L
- NOEC for chronic toxicity in Trichogramma based on the egg yield (Trichogramma): 80 mg/L
- NOEC for chronic toxicity in Trichogramma based on the emergence rate (Trichogramma): 40 mg/L
- Adult survival time (Trichogramma; mass concentration 10 mg/L): 3.60 a d
- Egg yield (Trichogramma; mass concentration 10 mg/L): 37.0 a eggs
- Emergence rate (Trichogramma; mass concentration 10 mg/L): 90.57 a %
- Adult survival time (Trichogramma; mass concentration 20 mg/L): 3.23 a d
- Egg yield (Trichogramma; mass concentration 20 mg/L): 37.3 a eggs
- Emergence rate (Trichogramma; mass concentration 20 mg/L): 87.81 a %
- Adult survival time (Trichogramma; mass concentration 40 mg/L): 3.50 a d
- Egg yield (Trichogramma; mass concentration 40 mg/L): 36.0 a eggs
- Emergence rate (Trichogramma; mass concentration 40 mg/L): 78.19 a %
- Adult survival time (Trichogramma; mass concentration 80 mg/L): 3.21 a d
- Egg yield (Trichogramma; mass concentration 80 mg/L): 34.2 a eggs
- Emergence rate (Trichogramma; mass concentration 80 mg/L): 56.12 b %
- Adult survival time (Trichogramma; mass concentration 160 mg/L): 3.12 a d
- Egg yield (Trichogramma; mass concentration 160 mg/L): 28.5 b eggs
- Emergence rate (Trichogramma; mass concentration 160 mg/L): 27.65 c %

SMILES: Cc1cc(Cl)ccc1OCC(=O)O [MCPA]
- Validation: body weight compared with blank control (quail; 20 mg/L): no significant difference
- NOEC for chronic toxicity in quails based on the body weight (quail): 25 mg/kgfeedstuff
- NOEC for chronic toxicity in quails based on the egg production (quail): 500 mg/kgfeedstuff
- NOEC for chronic toxicity in quails based on the stillbirth rate (quail): 25 mg/kgfeedstuff
- Body weight (quail; [6]): 148.5 ab g
- Egg production (quail; [6]): 0.97 a eggs
- Stillbirth rate (quail; [6]): 22.4 a %
- Body weight (quail; [7]): 155.3 ab g
- Egg production (quail; [7]): 0.96 a eggs
- Stillbirth rate (quail; [7]): 23.2 ab %
- Body weight (quail; [8]): 150.7 ab g
- Egg production (quail; [8]): 0.96 a eggs
- Stillbirth rate (quail; [8]): 21.2 a %
- Body weight (quail; [9]): 145.2 b g
- Egg production (quail; [9]): 0.95 a eggs
- Stillbirth rate (quail; [9]): 26.4 b %
- Body weight (quail; [10]): 159.5 a g
- Egg production (quail; [10]): 0.94 a eggs
- Stillbirth rate (quail; [10]): 37.3 b %
- NOEC (smallest NOEC among the endpoint effects) (quail): 25 mg/kgfeedstuff
